Measurements: patent US12128018B2, “Combination of a selective histone deacetylase 3 (HDAC3) inhibitor and an immunotherapy agent for the treatment of cancer” (KDAc Therapeutics, Inc., priority 2018, dated 2024)

Assays:
HDAC1 = HDAC1 (Homo sapiens (Human), UniProt Q13547); assay: non-trypsin coupled in-vitro HDAC enzymatic endpoint assay (Caliper LabChip EZ-Reader); assay type: biochemical; settings: 3 hrs preincubation, Substrate A 2 μM
Procedure: (§7) In some experiments, the following non-trypsin coupled in-vitro HDAC enzymatic endpoint assay was used to assay the compounds described herein. Below is a standardized protocol for running HDAC selectivity panel on Caliper LabChip EZ-Reader Instrument.
(§8) Substrate A was prepared as 2 mM in DMSO. Its final concentration in the assay for HDACs 1,2,3,6 is 2 μM.
(§9) LBH was used as quench inhibitor to stop the reaction at the end point.
(§10) The protocol was carried out as follows: • 1. Caliper LabChip and 1 μM Marker (peptide substrate in separation buffer) were prepared for instrument run. • 2. Warm up Caliper HAB buffer to room temperature • 3. […] Add 10 μl 3× solution acetylated substrate to initiate the reaction for 50 minutes. • 5. […] Mix plate • 7. Read plate on EZ Reader instrument. Separate substrate and product peaks by capillary electrophoresis and read fluorescence from both substrate and product. • 8. Run parameters were as follows:

HDAC2 = HDAC2 (Homo sapiens (Human), UniProt Q92769); assay: as above; assay type: biochemical; settings: 3 hrs preincubation, Substrate A 2 μM
Sequence of HDAC2 (Q92769 whole entry, species assumed): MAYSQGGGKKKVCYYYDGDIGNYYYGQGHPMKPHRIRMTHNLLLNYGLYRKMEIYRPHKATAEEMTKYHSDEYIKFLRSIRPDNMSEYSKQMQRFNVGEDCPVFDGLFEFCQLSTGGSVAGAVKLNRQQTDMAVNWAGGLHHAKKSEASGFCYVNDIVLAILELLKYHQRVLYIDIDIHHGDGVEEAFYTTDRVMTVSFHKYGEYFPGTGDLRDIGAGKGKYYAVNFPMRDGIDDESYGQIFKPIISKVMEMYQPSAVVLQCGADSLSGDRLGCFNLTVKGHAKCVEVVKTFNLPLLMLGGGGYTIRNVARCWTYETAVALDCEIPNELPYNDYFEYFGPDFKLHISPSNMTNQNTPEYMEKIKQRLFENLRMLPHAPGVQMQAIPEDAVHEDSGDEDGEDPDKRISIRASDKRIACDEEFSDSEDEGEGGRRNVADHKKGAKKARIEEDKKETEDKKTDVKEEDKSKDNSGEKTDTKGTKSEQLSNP
Procedure: as §7, §8, §9, §10

HDAC3 = HDAC3 (Homo sapiens (Human), UniProt O15379); assay: as above; assay type: biochemical; settings: 3 hrs preincubation, Substrate A 2 μM
Sequence of HDAC3 (O15379 whole entry, species assumed): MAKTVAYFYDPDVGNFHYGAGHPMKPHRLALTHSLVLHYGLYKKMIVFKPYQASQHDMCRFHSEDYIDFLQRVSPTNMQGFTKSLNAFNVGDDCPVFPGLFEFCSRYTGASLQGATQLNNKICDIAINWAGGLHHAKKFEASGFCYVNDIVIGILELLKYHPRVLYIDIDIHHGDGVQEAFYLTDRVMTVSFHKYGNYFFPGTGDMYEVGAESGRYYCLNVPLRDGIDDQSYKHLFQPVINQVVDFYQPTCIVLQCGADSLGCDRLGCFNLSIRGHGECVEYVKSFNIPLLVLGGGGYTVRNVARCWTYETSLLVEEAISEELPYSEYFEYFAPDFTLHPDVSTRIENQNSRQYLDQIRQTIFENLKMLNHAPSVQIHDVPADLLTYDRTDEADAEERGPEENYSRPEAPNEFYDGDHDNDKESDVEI
Sequence of HDAC3 (Q9Y618 395-489 partner, species assumed): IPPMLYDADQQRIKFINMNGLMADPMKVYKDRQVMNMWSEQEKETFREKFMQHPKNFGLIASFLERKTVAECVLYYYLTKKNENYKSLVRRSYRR
Procedure: as §7, §8, §9, §10

[1] = tested on: MHC Class II expression across multiple cell lines; assay: FACS detection of MHC II on human and murine tumor cell lines; assay type: cell-based; settings: 72 hours treatment (FIG. 1)
Procedure: (§1) Cell Culture and Compound Treatment for MHC II Induction
(§2) Human and murine tumor cell lines were obtained from the Shanghai Institutes for Biological Sciences (SIBS) or American Type Culture Collection (ATCC) and maintained in a humidified 5% CO2 incubator at 37° C. All of the human cell lines were derived from human B cell lymphomas: OCI-Ly19, OCI-Ly7, OCI-Ly18, RL, SU-DHL6, and MD901. The murine tumor cell lines were of varied origin: CT-26 (colon carcinoma), RENCA (renal cell carcinoma), P388D1 (lymphoblast of monocytes and macrophages), MPC-11 (plasmacytoma, myeloma), L5178 (thymic lymphoma), and J588 (plasmacytoma, myeloma).
(§3) On Day 0, T25 flasks were seeded at the following cell densities:
(§4) On Day 1, cells were treated with I-1 compound diluted in DMSO/PBS (final concentration of DMSO in the media was 0.19%). The cells were treated with I-1 compound for 72 hours. The adherent cells were dissociated with 1 mL/T25 flask of Cell Dissociation buffer (GIBCO) at 37° C. Four mL of culture media was added to each flask, samples were aliquoted FACS analysis. […]
(§5) Cells were counted to determine cell number and viability with Vi-cell (Beckman). […]
(§6) Cells were incubated for 1 hour at 4° C., protected from light. […] Samples were analyzed immediately using FACS machine. The data were analyzed with BD Accuri C6 software and FlowJo_V10.

[2] = tested on: MHC class II (IA-IE) in P388D1 cells; assay: in vitro induction of MHC class II (IA-IE) in P388D1 cells (FACS); assay type: cell-based, murine
Procedure: as §1, §2, §3
On Day 1, cells were treated with I-1 compound diluted in DMSO/PBS (final concentration of DMSO in the media was 0.19%). The cells were treated with I-1 compound for 72 hours. The adherent cells were dissociated with 1 mL/T25 flask of Cell Dissociation buffer (GIBCO) at 37° C. Four mL of culture media was added to each flask, samples were aliquoted FACS analysis. For suspension cells, samples were aliquoted into 50 mL conical tubes for FACS analysis.
FACS Detection of MHC II on Human and Murine Cells (IA/IE on Murine Cells)
Cells were counted to determine cell number and viability with Vi-cell (Beckman). After washing once with 10 mL cold FACS staining buffer (PBS+0.2% BSA), liquid was aspirated and the cells were resuspended in enough cold FACS staining buffer to reach a final cell density of ˜1×10^7 viable cells/mL. 50 μL/well (˜500 k/well) of cells were added to a 96-well u-bottomed plate and the cells were stained as follows, according to manufacturer's instructions: • Sample 1: Unstained • Sample 2: stained with anti MHC II antibody (PE anti-human HLA-DR, Clone: G46-6, Becton Dickinson; PE anti-mouse I-A/I-E, Clone: M5/114.15.2, Becton Dickinson) • Sample 3: stained with isotype control
as §6

[3] = tested on: MHC class II (IA-IE) in RENCA cells; assay: in vitro induction of MHC class II (IA-IE) in RENCA cells (FACS); assay type: cell-based, murine
Procedure: as §1, §2, §3, §4, §5, §6

[4] = tested on: P388D1 cells and RENCA cells; assay: cytotoxicity, percent of viable cells; assay type: cell-based, murine; settings: various concentrations (FIG. 4)
[5] = tested on: Twenty-six syngeneic cells lines; assay: viability of syngeneic cell lines; assay type: cell-based; settings: 10 μM
plasma exposure (PK) = assay type: in vivo; settings: FIG. 13
Procedure: 1) For pharmacokinetics (PK): 2 hrs after the first treatment, satellite time point (Day 11) and after the final time point (Day 14) 100 μl blood was collected from the I-1 treatment groups (3 mice/group), then centrifuged to get about 50 μl plasma for PK analysis.

[6] = tolerability and exposure relative to NOAEL

Sequence of HDAC1 (Q13547 whole entry, species assumed): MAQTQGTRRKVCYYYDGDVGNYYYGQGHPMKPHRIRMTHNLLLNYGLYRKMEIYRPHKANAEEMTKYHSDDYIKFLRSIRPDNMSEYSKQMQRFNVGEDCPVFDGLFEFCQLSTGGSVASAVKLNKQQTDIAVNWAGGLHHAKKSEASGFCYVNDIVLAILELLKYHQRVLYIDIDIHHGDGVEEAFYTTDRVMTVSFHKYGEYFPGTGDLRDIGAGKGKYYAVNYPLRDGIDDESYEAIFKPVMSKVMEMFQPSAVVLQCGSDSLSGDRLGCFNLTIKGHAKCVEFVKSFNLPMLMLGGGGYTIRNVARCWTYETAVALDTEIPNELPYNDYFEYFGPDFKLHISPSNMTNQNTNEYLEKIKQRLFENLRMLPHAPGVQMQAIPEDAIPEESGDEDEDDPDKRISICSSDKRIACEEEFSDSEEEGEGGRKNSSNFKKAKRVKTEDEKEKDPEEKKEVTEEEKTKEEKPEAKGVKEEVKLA

SMILES | IC50 (HDAC1) | IC50 (HDAC2) | IC50 (HDAC3) | increase in MHC Class II expression [1] | fold more cells positive for MHC class II (IA-IE) ([2]; 120 nM I-1) | fold more cells positive for MHC class II (IA-IE) ([2]; 3 μM I-1) | fold more cells positive for MHC class II (IA-IE) ([3]; 1 μM I-1) | fold more cells positive for MHC class II (IA-IE) ([3]; 3 μM I-1) | cytotoxicity (percent of viable cells) [4] | impact on viability [5] | plasma exposure (plasma exposure (PK)) | tolerability ([6]; 25 and 50 mg/kg, orally, BID) | tolerated exposures relative to tolerated dose of a clinical HDAC 1,2,3 inhibitor ([6]; FIG. 13) | levels showing efficacy relative to NOAEL (no adverse effect level) ([6]; rat NOAEL, FIG. 13) | MHC class II protein levels (geometric mean MFI) ([2]; various concentrations (FIGS. 14 and 15))
CC(=O)Nc1ccc(C(=O)Nc2ccc(F)cc2N)cc1 [Compound I-1] | 2190 nM | 1510 nM | 61 nM | 20-100% | about 4 × | about 13 × | about 2 × | about 6 × | generally not cytotoxic | minimal impact on viability | above K, and below NOAEL | well tolerated | greater than 4 × | below rat NOAEL | 
Nc1cc(F)ccc1NC(=O)/C=C/c1cnn(C/C=C/c2ccccc2)c1 [RGFP966, reference compound] |  |  |  |  |  |  |  |  |  |  |  |  |  |  | capable of increasing MHC class II protein levels
